Assays:
[1] = test system: poliomyelitis vaccines (Types 1, 2 and 3): Type 1; parameters: species or system guinea pigs; settings: guinea pig, in vivo
[2] = test system: poliomyelitis vaccines (Types 1, 2 and 3): Type 3; type: in vivo; settings: guinea pigs
[3] = test system: poliomyelitis vaccines (Types 1, 2 and 3): Type 2; type: in vivo; settings: guinea pigs
[4] = undiluted, 1/10 and 1/100 dilutions, determined by comparison of ED50

SMILES: CCCCCCCCCCCCCCCCCCOC(=O)[C@@H](N)Cc1ccc(O)cc1 [octadecyl tyrosine]
- Potency Relative to Unadsorbed Vaccine, Type 1 [1]: 13.8
- factor more potent than the vaccine containing aluminum phosphate, type 1 [1]: 5.2
- factor more potent than the vaccine containing aluminum phosphate, type 3 [2]: 1.4
- Potency Relative to Unadsorbed Vaccine, Type 3 [2, 4]: 8.5
- factor more potent than the vaccine containing aluminum phosphate, type 2 [3]: 1.9
- Potency Relative to Unadsorbed Vaccine, Type 2 [3, 4]: 3.2
